Experiments:
[1] = system: P. falciparum female gametocytes; parameters: method as in Miguel-Blanco et al 2017; conditions: TCAMS library screen; ref Miguel-Blanco et al 2017; read-out: Pf FGAA IC50; cited from earlier work
[2] = system: P. falciparum female gametocytes; experiment: P. falciparum female gametogenesis assay (Pf FGAA); conditions: 1: YES; 0: NO
HepG2 cells = conditions: HepG2 value reported with Pf FGAA screen; ref Miguel-Blanco et al 2017; cited from earlier work

SMILES | IC50 [1] | Is compound selective in assay? Pf FGAA active? [2] | HepG2 cytoxicity (Pf FGAA screen) (HepG2 cells)
Cl.Fc1cc(Cl)ccc1Nc1ccnc2cc(-c3ccc(CN4CCNCC4)o3)ccc12 [TCMDC-138394] | 1.91 µM | 0 (0: NO) | 12.05 µM
CCc1ccccc1-c1csc(C(=O)NCC2CCN(Cc3ccc(C(C)(C)C)cc3)C2)c1.O=C(O)C(F)(F)F (stereo not drawn) [TCMDC-134448] | 1.2 µM | 0 (0: NO) | 7.67 µM
Cl.N[C@@H](CCNC1CCN(c2cccc(C(F)(F)F)c2)CC1)Cc1ccc(F)c(F)c1 [TCMDC-132301] | 0.44 µM | 0 (0: NO) | 3.76 µM
Cc1ccc(-c2nc3cc(NC(=O)c4ccc([N+](=O)[O-])o4)ccc3o2)cc1Cl [TCMDC-123657] | 1.35 µM | 0 (0: NO) | 1.72 µM
COc1ccc(N2CCN(CCCCNCc3ccc(NC(=O)c4cc(Cl)cc(Cl)c4)cc3)CC2)c(OC)c1 [TCMDC-138226] | 3.11 µM | 0 (0: NO) | 4.42 µM
Cl.NC1CCN(CCc2ccc(NS(=O)(=O)c3ccc(-c4ccccc4)cc3)cc2)CC1 [TCMDC-134085] | 0.75 µM | 0 (0: NO) | 7.17 µM
N#Cc1ccc(-c2ccc(C(=O)NCC3CCN(CCN4CCC(c5ccc6c(c5OCC(N)=O)CCCC6)CC4)CC3)cc2)cc1 [TCMDC-134563] | 1.26 µM | 0 (0: NO) | 6.17 µM
O=C(NCC1CCN(Cc2cccc(C(F)(F)F)c2)C1)c1cc(-c2cccc(Cl)c2)cs1.O=C(O)C(F)(F)F (stereo not drawn) [TCMDC-134485] | 0.89 µM | 1 (1: YES) | 16.03 µM
CC(C)(C)Nc1cc(C2CC2)nc(-c2ccccn2)n1 [TCMDC-124453] | 0.1 µM | 1 (1: YES) | >100 µM
N#CC(c1ccc(Br)cc1)c1ccc2c(C(F)(F)F)cc(C(F)(F)F)nc2n1 (stereo not drawn) [TCMDC-123754] | 1.16 µM | 0 (0: NO) | 2.32 µM
CC(CO)(CO)NCc1cc2c3ccccc3c(CNC(C)(CO)CO)cc2c2ccccc12.CS(=O)(=O)O [TCMDC-137752] | 4.42 µM | 0 (0: NO) | 7.33 µM
CN(C)CCN(C)Cc1ccc(-c2ccc3c(Nc4ccc(Oc5ccccn5)cc4)ccnc3c2)o1 [TCMDC-138426] | 2.05 µM | 0 (0: NO) | 5.37 µM
COc1ccc(CNC2Cc3ccccc3C2)cc1-c1ccc(S(=O)(=O)NCCN2CCCC2)s1.O=C(O)C(F)(F)F [TCMDC-132258] | 1.39 µM | 0 (0: NO) | 5.31 µM
CN(C)c1ccc(-c2csc(C(=O)NCC3CCN(Cc4ccc(C(C)(C)C)cc4)C3)c2)cc1.O=C(O)C(F)(F)F (stereo not drawn) [TCMDC-134449] | 0.6 µM | 1 (1: YES) | 7.24 µM
CN1CCC(N2CCC(Oc3cccc(C(=O)NCCCC4CCCC4)c3)CC2)CC1 [TCMDC-124677] | 1.47 µM | 0 (0: NO) | 4.90 µM
CCCC(=O)NC(c1ccc(C(C)C)cc1)c1ccc2cccnc2c1O (stereo not drawn) [TCMDC-123884] | 1.54 µM | 1 (1: YES) | >100 µM
FC(F)(F)c1ccc2[nH]c(-c3cccc(-c4cccc(CNCCN5CCNCC5)c4)c3)nc2c1.O=C(O)C(F)(F)F [TCMDC-132871] | 1.22 µM | 0 (0: NO) | 6.61 µM
Cc1ccc(Cl)c2sc(N3CCN(C(=O)c4ccc([N+](=O)[O-])o4)CC3)nc12 [TCMDC-124311] | 1.44 µM | 1 (1: YES) | 25.79 µM
c1ccn2c(Sc3ncnc4sccc34)ncc2c1 [TCMDC-124602] | 0.24 µM | 1 (1: YES) | >100 µM
Cc1ccc2c(c1)c(C1CCN(C(=O)c3ccc([N+](=O)[O-])o3)CC1)cn2C [TCMDC-124787] | 2.12 µM | 1 (1: YES) | 28.85 µM
FC(F)(F)c1cnc(Sc2nnc(-c3ccncc3)o2)c(Cl)c1 [TCMDC-123767] | 0.16 µM | 1 (1: YES) | >100 µM
Cc1ccnc(NC(c2ccc(Cl)c([N+](=O)[O-])c2)c2ccc3cccnc3c2O)c1 (stereo not drawn) [TCMDC-123691] | 1.48 µM | 1 (1: YES) | 23.45 µM

SMILES | IC50 [1] | Is compound selective in assay? Pf FGAA active? [2] | HepG2 cytoxicity (Pf FGAA screen) (HepG2 cells)
COc1ccc(-c2csc3ncnc(Cl)c23)cc1 [TCMDC-123805] | 1.46 µM | 0 (0: NO) | 0.55 µM
CN(C)c1ccc(-c2csc(C(=O)NCC3CCN(Cc4cccc(C(F)(F)F)c4)C3)c2)cc1.O=C(O)C(F)(F)F (stereo not drawn) [TCMDC-134486] | 1.56 µM | 0 (0: NO) | 8.18 µM
Cc1noc(C)c1-c1ccc2c(Nc3nccc4ccccc34)c(C(N)=O)cnc2c1 [TCMDC-136456] | 1.54 µM | 0 (0: NO) | 3.85 µM
CCN(CCNS(C)(=O)=O)c1ccc(N)c(C)c1.O.O=S(=O)(O)O [TCMDC-125836] | 1.14 µM | 1 (1: YES) | 26.14 µM
CC1Cc2ccccc2N1S(=O)(=O)c1cccc(C(=O)Nc2nc(-c3ccccn3)cs2)c1 (stereo not drawn) [TCMDC-124559] | 0.34 µM | 1 (1: YES) | 50.12 µM
Cc1cccc2nc(-c3ccc(-c4ccc(CNCc5ccc(CN)cc5)cc4)cc3)[nH]c12.O=C(O)C(F)(F)F [TCMDC-132813] | 2.16 µM | 0 (0: NO) | 18.09 µM
CCn1c(-c2nonc2N)nc2c(-c3cccc(NC(=O)NC45CC6CC(CC(C6)C4)C5)c3)ncc(OCCCN)c21.O=C(O)C(F)(F)F [TCMDC-136246] | 1.36 µM | 0 (0: NO) | 6.10 µM
Clc1ccc(-c2csc3ncnc(Cl)c23)cc1 [TCMDC-123811] | 1.57 µM | 1 (1: YES) | 94.46 µM
COc1ccccc1C1CCN(C2CCC(NC(=O)c3ccc4[nH]c(-c5ccc(C)cc5)nc4c3)CC2)CC1 (stereo not drawn) [TCMDC-133556] | 2.49 µM | 0 (0: NO) | 3.99 µM
NCCCCNc1cc(-c2ccnc(Nc3cccc(Cl)c3)n2)ccn1 [TCMDC-134683] | 1.46 µM | 0 (0: NO) | 0.67 µM
O=C(c1ccc([N+](=O)[O-])o1)N1CCN(c2nc3c(Cl)cccc3s2)CC1 [TCMDC-124316] | 1.1 µM | 1 (1: YES) | 41.96 µM
COc1cc(CNCCCCCCNCc2cc(OC)c3ccccc3c2OC)c(OC)c2ccccc12.CS(=O)(=O)O [TCMDC-137502] | 1.67 µM | 0 (0: NO) | 3.67 µM
COc1ccc(CCNCCCCNCCc2ccc(OC)c3ccccc23)c2ccccc12.CS(=O)(=O)O [TCMDC-137961] | 0.48 µM | 0 (0: NO) | 2.14 µM
Oc1c(C(Nc2ccccn2)c2ccc(Cl)cc2Cl)ccc2cccnc12 (stereo not drawn) [TCMDC-125559] | 1.14 µM | 1 (1: YES) | 12.74 µM
Cc1sc2nc(CN3CCCC3)nc(-n3c(NCCO)nc4ccccc43)c2c1C [TCMDC-124811] | 7.05 µM | 0 (0: NO) | 25.73 µM
O=C(O)C(F)(F)F.O=S(=O)(NCCN1CCCC1)c1ccc(-c2ccc(CNC3Cc4ccccc4C3)cc2)s1 [TCMDC-132234] | 2.27 µM | 0 (0: NO) | 5.83 µM
CCn1c(-c2nonc2N)nc2c(-c3cccc(NC(=O)Nc4ccc(C(F)(F)F)cc4)c3)ncc(OCCCN)c21.O=C(O)C(F)(F)F [TCMDC-136179] | 0.91 µM | 0 (0: NO) | 5.62 µM
O=C(Nc1ccc([N+](=O)[O-])cc1)Nc1cc(OCC(F)(F)F)cc(OCC(F)(F)F)c1 [TCMDC-124533] | 1.16 µM | 0 (0: NO) | 6.24 µM
O=C(c1ccc([N+](=O)[O-])o1)N1CCN(c2nc3c(F)cc(F)cc3s2)CC1 [TCMDC-125149] | 1.31 µM | 1 (1: YES) | >100 µM
Cc1ccc(Cn2nc(N3CCNCC3)ccc2=O)cc1NC(=O)Nc1ccc(-c2ccccc2)cc1.O=C(O)C(F)(F)F [TCMDC-132580] | 1.94 µM | 0 (0: NO) | 7.42 µM
CCCC(=O)NC(c1ccc(C)cc1)c1ccc2cccnc2c1O (stereo not drawn) [TCMDC-123605] | 1.73 µM | 0 (0: NO) | 9.22 µM
O=C(NCC1CCN(Cc2cccc(C(F)(F)F)c2)C1)c1cc(-c2cccc(C(F)(F)F)c2)cs1.O=C(O)C(F)(F)F (stereo not drawn) [TCMDC-134483] | 1.65 µM | 0 (0: NO) | 16.22 µM

— PMC6753678, “Fueling Open Innovation for Malaria Transmission-Blocking Drugs: Hundreds of Molecules Targeting Early Parasite Mosquito Stages” (Frontiers in Microbiology, 2019)
